Test results reported in patent publication US20130172318A1, “ANTI-INFLAMMATORY AGENTS” (priority 2010, published 2013).

Experiments:
[1] = tested on: MCP-1 induced migration of THP-1 cells; settings: MCP-1 induced THP-1 cell migration assay; disclosed in WO2005/053702; cited from earlier work
[2] = tested on: endotoxin-stimulated TNF-alpha levels; assay: Murine sub-lethal endotoxemia model, serum TNF-α by ELISA; format: in vivo, mouse; settings: single dose 1 mg/kg p.o. one hour prior to LPS i.p.; female CD1 mice; serum two hours after challenge
Method: The anti-inflammatory efficacy of an exemplary compound according to the present invention was tested using the murine sub-lethal endotoxemia model.
Briefly, the method is as follows: Female CD1 mice (28-30 g, ˜7 weeks of age) were dosed with their respective treatment in sterile filtered 1% CMC by oral gavage in a dose volume of 10 ml/kg one hour prior to an endotoxin (LPS) challenge. The endotoxin challenge was injected by the intraperitoneal route containing 675,000 Endotoxin Units of LPS (E. coli strain 0111:B4 (Code L4130)) in endotoxin free PBS. Mice were left for two hours and then exsanguinated under terminal anaesthesia and blood was taken. Serum was prepared from this terminal bleed and aliquoted and stored at −20° C. Serum TNF-α levels were measured by ELISA per manufacturers instructions (R and D Systems).
Eight animals were treated in each group, and the data for the animal with the highest and lowest TNF-α level in each group were eliminated, and the mean and standard error reported for the remaining six animals. Data for untreated animals were taken from an historical control experiment.

Structure (SMILES) | fold more potent as a BSCI than dodecanoyl-3-aminocaprolactam [1] [fold] | inhibition of endotoxin-stimulated TNF-alpha levels [2] [%]
CCCCCCCCCCC(C)(C)C(=O)NC1CCCCNC1=O (centres unmarked) [2′2′-dimethyldodecenanoyl-3-aminocaprolactam] | 10 | 
O=C(N[C@H]1CCCNC1=O)c1ccc(F)cc1 [Example 3, (S)-4-Fluoro-N-(2-oxopiperidin-3-yl)benzamide] |  | 50
